Measured values: ChEMBL document CHEMBL2440052, “Quinazolinecarboline alkaloid evodiamine as scaffold for targeting topoisomerase I and sirtuins” (Bioorg Med Chem, 2013)
Activity calls are given as the source filed them. The calls are words filed in the database; no cut-off is given here.

Columns and labels:
MCF7 = test: Cytotoxicity against human MCF7 cells at 15 uM after 72 hrs by MTT assay relative to control; format: functional; settings: MCF7, 72 h, values are per cent of control
[1] = Cytotoxicity against human H460 cells after 72 hrs by MTT assay; format: functional, cell-based; settings: NCI-H460, 72 h
HepG2 = test: Cytotoxicity against human HepG2 cells at 15 uM after 72 hrs by MTT assay relative to control; format: functional; settings: HepG2, 72 h, values are per cent of control
[2] = molecular target: T1, NAD-dependent protein deacetylase sirtuin-1 (Homo sapiens) (UniProt Q96EB6); test: Inhibition of recombinant GST-SIRT1 (unknown origin) using KI177 as substrate at 50 uM after 45 mins by fluorescence assay
T1 sequence (whole entry): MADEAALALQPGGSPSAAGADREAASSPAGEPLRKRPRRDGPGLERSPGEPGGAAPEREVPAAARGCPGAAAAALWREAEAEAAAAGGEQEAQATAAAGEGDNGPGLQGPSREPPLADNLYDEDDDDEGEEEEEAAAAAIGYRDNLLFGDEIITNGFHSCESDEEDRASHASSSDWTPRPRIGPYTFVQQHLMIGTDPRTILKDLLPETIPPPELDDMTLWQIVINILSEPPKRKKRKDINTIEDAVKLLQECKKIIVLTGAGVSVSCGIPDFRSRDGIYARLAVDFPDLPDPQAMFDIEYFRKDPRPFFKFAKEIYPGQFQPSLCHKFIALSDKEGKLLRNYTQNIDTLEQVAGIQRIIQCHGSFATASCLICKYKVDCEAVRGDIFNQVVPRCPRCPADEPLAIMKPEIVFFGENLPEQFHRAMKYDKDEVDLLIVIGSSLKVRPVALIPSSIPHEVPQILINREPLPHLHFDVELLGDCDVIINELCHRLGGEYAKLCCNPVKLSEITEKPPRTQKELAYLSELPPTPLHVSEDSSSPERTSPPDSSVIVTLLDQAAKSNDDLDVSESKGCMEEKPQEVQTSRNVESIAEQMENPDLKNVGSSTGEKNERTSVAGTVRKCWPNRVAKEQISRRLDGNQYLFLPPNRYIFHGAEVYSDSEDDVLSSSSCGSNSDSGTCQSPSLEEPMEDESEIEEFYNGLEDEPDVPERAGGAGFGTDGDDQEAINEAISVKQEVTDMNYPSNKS

[3] = molecular target: T2, NAD-dependent protein deacetylase sirtuin-3, mitochondrial (Homo sapiens) (UniProt Q9NTG7); test: Inhibition of recombinant His-SIRT3 (unknown origin) using KI179 as substrate at 200 uM after 45 mins by fluorescence assay
T2 sequence (whole entry): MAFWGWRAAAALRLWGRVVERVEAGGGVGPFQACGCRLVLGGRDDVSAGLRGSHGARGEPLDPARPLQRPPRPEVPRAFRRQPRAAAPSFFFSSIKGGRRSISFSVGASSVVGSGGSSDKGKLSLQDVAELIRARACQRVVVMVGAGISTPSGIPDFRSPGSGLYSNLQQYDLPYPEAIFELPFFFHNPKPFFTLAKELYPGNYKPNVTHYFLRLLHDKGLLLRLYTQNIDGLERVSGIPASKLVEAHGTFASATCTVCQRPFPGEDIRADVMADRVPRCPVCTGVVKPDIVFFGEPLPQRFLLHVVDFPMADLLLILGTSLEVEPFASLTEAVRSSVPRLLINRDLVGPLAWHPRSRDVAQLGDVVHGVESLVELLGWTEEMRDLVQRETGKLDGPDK

[4] = molecular target: T3, NAD-dependent protein deacetylase sirtuin-2 (Homo sapiens) (UniProt Q8IXJ6); test: Inhibition of recombinant GST-SIRT2 (unknown origin) using KI179 as substrate at 200 uM after 45 mins by fluorescence assay
T3 sequence (whole entry): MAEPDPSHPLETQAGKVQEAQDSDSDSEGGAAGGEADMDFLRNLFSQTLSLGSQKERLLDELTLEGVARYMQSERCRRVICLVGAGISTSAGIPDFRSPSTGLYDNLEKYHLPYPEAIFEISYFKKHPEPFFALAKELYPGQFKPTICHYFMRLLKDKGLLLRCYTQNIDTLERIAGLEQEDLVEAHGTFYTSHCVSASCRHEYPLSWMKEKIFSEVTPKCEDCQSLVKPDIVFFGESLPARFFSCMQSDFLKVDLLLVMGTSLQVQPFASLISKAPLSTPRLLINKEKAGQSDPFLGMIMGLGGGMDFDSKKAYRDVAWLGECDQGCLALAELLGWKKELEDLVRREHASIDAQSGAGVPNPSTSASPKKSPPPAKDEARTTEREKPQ

[5] = molecular target: T3, NAD-dependent protein deacetylase sirtuin-2 (Homo sapiens); test: Inhibition of recombinant GST-SIRT2 (unknown origin) using KI179 as substrate at 168 uM after 45 mins by fluorescence assay
[6] = molecular target: T4, DNA topoisomerase 1 (Homo sapiens) (UniProt P11387); test: Inhibition of human recombinant topoisomerase 1-mediated DNA cleavage assessed as formation of nicked DNA from supercoiled pBR322 DNA up to 100 uM after 60 mins by agarose gel electrophoresis
T4 sequence (whole entry): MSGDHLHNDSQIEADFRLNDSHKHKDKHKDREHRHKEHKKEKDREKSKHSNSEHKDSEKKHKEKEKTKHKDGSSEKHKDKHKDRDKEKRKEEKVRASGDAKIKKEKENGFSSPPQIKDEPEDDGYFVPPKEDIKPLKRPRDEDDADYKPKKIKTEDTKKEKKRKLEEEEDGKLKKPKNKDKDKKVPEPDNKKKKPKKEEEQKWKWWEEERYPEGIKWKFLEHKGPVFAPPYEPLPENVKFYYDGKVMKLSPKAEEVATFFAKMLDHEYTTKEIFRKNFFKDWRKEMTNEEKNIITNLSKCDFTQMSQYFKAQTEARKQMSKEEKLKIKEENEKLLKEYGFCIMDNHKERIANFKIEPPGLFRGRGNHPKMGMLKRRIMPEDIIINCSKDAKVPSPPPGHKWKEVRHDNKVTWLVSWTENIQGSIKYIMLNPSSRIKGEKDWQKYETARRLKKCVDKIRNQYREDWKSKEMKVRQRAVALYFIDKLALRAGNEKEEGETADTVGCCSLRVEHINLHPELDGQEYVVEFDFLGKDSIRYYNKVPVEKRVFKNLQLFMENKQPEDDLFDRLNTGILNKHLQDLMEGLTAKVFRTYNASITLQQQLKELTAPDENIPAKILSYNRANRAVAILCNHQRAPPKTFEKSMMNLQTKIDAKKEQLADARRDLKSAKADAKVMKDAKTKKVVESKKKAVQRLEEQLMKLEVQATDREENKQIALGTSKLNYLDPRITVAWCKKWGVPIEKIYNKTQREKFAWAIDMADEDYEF

[7] = molecular target: T4, DNA topoisomerase 1 (Homo sapiens); test: Inhibition of human recombinant topoisomerase 1-mediated relaxation of supercoiled pBR322 at 500 uM after 60 mins by agarose gel electrophoresis
[8] = molecular target: T4, DNA topoisomerase 1 (Homo sapiens); test: Inhibition of human recombinant topoisomerase 1-mediated relaxation of supercoiled pBR322 at 50 to 100 uM after 60 mins by agarose gel electrophoresis
[9] = molecular target: T2, NAD-dependent protein deacetylase sirtuin-3, mitochondrial (Homo sapiens); test: Inhibition of recombinant His-SIRT3 (unknown origin) using KI179 as substrate at 168 uM after 45 mins by fluorescence assay

Row | Structure (SMILES) | viability, % of control at 15 µM (MCF7) [%] | IC50 [1] [µM] | viability, % of control at 15 µM (HepG2) [%] | inhibition [2] [%] | inhibition [3] [%] | inhibition [4] [%] | inhibition [5] [%] | inhibition [6] | inhibition [7] | inhibition [8] | inhibition [9] [%]
1 | CN1c2ccccc2C(=O)N2[C@@H](C(=O)O)Cc3c([nH]c4ccccc34)[C@H]12 | 103 | > 30 | 107 |  |  |  |  |  |  |  | 
2 | CN1CCN(C(=O)[C@H]2Cc3c([nH]c4ccccc34)[C@@H]3N(C)c4ccccc4C(=O)N23)CC1 | 74 | 55 | 91 |  |  |  |  |  |  |  | 
3 | COC(=O)[C@@H]1Cc2c([nH]c3ccccc23)[C@H]2N(C)c3ccccc3C(=O)N12 | 90 | 35 | 101 | 3.3 | 21 | 80 |  |  |  |  | 
4 | CN1CCN(C(=O)[C@@H]2Cc3c([nH]c4ccccc34)[C@H]3N(C)c4ccccc4C(=O)N23)CC1 | 68 | 66 | 83 | 5.3 |  | 43 |  |  |  |  | 
5 | CN1c2ccccc2C(=O)N2[C@@H](C(=O)N3CCSCC3)Cc3c([nH]c4ccccc34)[C@H]12 | 105 | > 100 | 89 |  |  |  |  |  |  |  | 
6 | CNC(=O)[C@@H]1Cc2c([nH]c3ccccc23)[C@H]2N(C)c3ccccc3C(=O)N12 | 94 | 53 | 101 | 6.4 | 26 | 62 |  |  |  |  | 
7 | CN1c2ccccc2C(=O)N2[C@H](C(=O)N3CCOCC3)Cc3c([nH]c4ccccc34)[C@@H]12 | 131 | 73 | 88 | 4.1 |  | 36 |  |  |  |  | 
8 | CN1c2ccccc2C(=O)N2CCc3c([nH]c4ccccc34)[C@H]21 | 44 | 2.6 | 69 | 4.2 |  |  | 71 | inactive | Active | inactive | 20
9 | COC(=O)[C@H]1Cc2c([nH]c3ccccc23)[C@@H]2N(C)c3ccccc3C(=O)N12 | 96 | 24 | 90 | 7.8 | 17 | 78 |  |  |  |  | 
10 | CN1c2ccccc2C(=O)N2[C@H](C(=O)N3CCSCC3)Cc3c([nH]c4ccccc34)[C@@H]12 | 103 | 86.8 | 90 | 8.2 |  | 35 |  |  |  |  | 
11 | CN1c2ccccc2C(=O)N2[C@@H](C(=O)N3CCCCC3)Cc3c([nH]c4ccccc34)[C@H]12 | 63 | 8.5 | 75 |  |  |  |  |  |  |  | 
12 | CN1c2ccccc2C(=O)N2[C@@H](C(=O)N3CCOCC3)Cc3c([nH]c4ccccc34)[C@H]12 | 72 | 58.3 | 94 |  |  |  |  |  |  |  | 
13 | CN1c2ccccc2C(=O)N2[C@H](C(=O)O)Cc3c([nH]c4ccccc34)[C@@H]12 | 128 | 60 | 107 | 26 | 61 | 60 |  |  |  |  | 
14 | CNC(=O)[C@H]1Cc2c([nH]c3ccccc23)[C@@H]2N(C)c3ccccc3C(=O)N12 | 108 | > 30 | 101 |  |  |  |  |  |  |  | 
15 | CN1c2ccccc2C(=O)N2CCc3c([nH]c4ccccc34)[C@@H]21 [EVODIAMINE] | 51 | 13.2 | 76 | 1.1 |  |  | 58 | inactive | Active | inactive | 21
16 | CN1c2ccccc2C(=O)N2[C@H](C(=O)N3CCCCC3)Cc3c([nH]c4ccccc34)[C@@H]12 | 85 | 49 | 110 | 6.5 |  | 46 |  |  |  |  | 
